Measured values from ChEMBL document CHEMBL1799914, “Design and synthesis of small molecule RhoA inhibitors: a new promising therapy for cardiovascular diseases?” (J Med Chem, 2011).

Legend:
Aorta [1] = test: Vasorelaxant activity in Sprague-Dawley rat endothelium thoracic aortic ring assessed as inhibition of phenylephrine-induced submaximal contraction measured after 5 mins
Aorta [2] = test: Vasorelaxant activity in Sprague-Dawley rat endothelium thoracic aortic ring assessed as inhibition of phenylephrine-induced submaximal contraction at 180 uM measured after 5 mins; format: functional

`O=C(O)/C=C/c1cccc(Nc2ccc3ccccc3n2)c1` was tested, and the IC50 (Aorta [1]) was 161 µM and the inhibition at 180 µM (Aorta [2]) was 55.9%.
`OC/C=C/c1cccc(Nc2cnc3ccccc3n2)c1` gave an IC50 (Aorta [1]) of 136 µM and an inhibition at 180 µM (Aorta [2]) of 78.6%.
